Assay: Clinical pharmacokinetic crossover study of IN, IM and oral naltrexone; plasma naltrexone and 6β-naltrexol by LC-MS/MS
Text: Study Goals. […] Secondary endpoints included adverse events (AEs), vital signs (heart rate, sitting blood pressure, and respiration rate), electrocardiogram (ECG), clinical laboratory changes and nasal irritation using the nasal irritation scale.
Study design. […] This was an in-patient open-label, crossover study involving approximately 14 healthy volunteers. […] Subjects stayed in the in-patient facility for 13 days to complete the entire study. Subjects were called 3 to 5 days after discharge to inquire concerning AEs and concomitant medications since discharge. Informed consent was obtained from all subjects, and all were screened for eligibility to participate in the study, including medical history, physical examination, clinical chemistry, coagulation markers, hematology, infectious disease serology, urinalysis, urine drug and alcohol toxicology screen, vital signs and ECG.
On days of study drug administration, a 12-lead ECG was performed approximately 1 hour prior to dosing and at approximately 1 and 4 hours post-dose. Vital signs were measured pre-dose and about 1 and 4 hours post-dose.
Study Drugs and Dosing. […] The IN (40 mg/mL) formulations were made by the staff pharmacist at Vince & Associates; the vehicle for the IN formulations was sterile water for injection. The IM formulation (2 mg/mL) was made by the staff pharmacist at Vince & Associates; the vehicle was sterile saline for injection.
Subjects stayed in the in-patient facility for 13 days to complete the entire study and were discharged 2 days after the fourth dose.
PK Assessments. […] Plasma was separated from whole blood and stored frozen at […] until assayed.
Analysis. […] Dose-adjusted values for AUCs and Cmax were calculated. The relative extent of IN and PO absorption (IN and PO versus IM) will be estimated from the dose-corrected AUCs.

[1] = naltrexone 2 mg IM, N = 10, listed as 6β-Naltrexol
[2] = naltrexone 4 mg IN plus […] Intravail, N = 12

## Oc1ccc2c3c1O[C@H]1[C@H](O)CC[C@@]4(O)[C@@H](C2)N(CC2CC2)CC[C@]314 [6β-naltrexol]
IN, IM or PO administration, except naltrexone Cmax after 4 mg IN
  Difference between the sexes for the PK parameters: no clinically meaningful difference
After the IN administration of naltrexone
  Mean Cmax of 6β-naltrexol: approximately 3 ng/mL
After the oral dose
  Ratio of AUC0-inf for 6β-naltrexol compared to that of naltrexone: 25
Naltrexone 2 mg IM, N = 10
  AUC0-inf of 6β-naltrexol, mean (CV %): 27.1 ng·h/mL
  AUC0-inf/Dose of 6β-naltrexol, mean (CV %): 15.0 (19.0) h · ng/mL/mg
  AUC0-t of 6β-naltrexol, mean (CV %): 25.1 (18.3) h · ng/mL
  AUC0-t/Dose of 6β-naltrexol, mean (CV %): 13.9 (18.3) h · ng/mL/mg
  AUCextrap of 6β-naltrexol, mean (CV %): 7.02 (29.4) %
  Cmax of 6β-naltrexol, mean (CV %): 1.5 ng/mL
  Cmax/Dose of 6β-naltrexol, mean (CV %): 0.838 ng/mL/mg
  Tmax of 6β-naltrexol, median (minimum, maximum): 3.00 h
  t1/2 of 6β-naltrexol, mean (CV %): 12.4 (13.2) h
  λz of 6β-naltrexol, mean (CV %): 0.0570 (14.8) 1/h
[1]
  Cmax of 6β-naltrexol, mean (CV %): 1.52 (26.8) ng/mL
  Cmax/Dose of 6β-naltrexol, mean (CV %): 0.838 (26.8) ng/mL/mg
Naltrexone 2 mg IN, hour 0
  Mean concentration of 6β-naltrexol: 0.0661 ng/mL
Naltrexone 2 mg IN, hour 0.042
  Mean concentration of 6β-naltrexol: 0.0627 ng/mL
Naltrexone 2 mg IN, hour 0.083
  Mean concentration of 6β-naltrexol: 0.12 ng/mL
Naltrexone 2 mg IN, hour 0.17
  Mean concentration of 6β-naltrexol: 0.283 ng/mL
Naltrexone 2 mg IN, hour 0.25
  Mean concentration of 6β-naltrexol: 0.454 ng/mL
Naltrexone 2 mg IN, hour 0.33
  Mean concentration of 6β-naltrexol: 0.677 ng/mL
Naltrexone 2 mg IN, hour 0.5
  Mean concentration of 6β-naltrexol: 0.852 ng/mL
Naltrexone 2 mg IN, hour 0.75
  Mean concentration of 6β-naltrexol: 1.08 ng/mL
Naltrexone 2 mg IN, hour 1
  Mean concentration of 6β-naltrexol: 1.1 ng/mL
Naltrexone 2 mg IN, hour 2
  Mean concentration of 6β-naltrexol: 1.39 ng/mL
Naltrexone 2 mg IN, hour 3
  Mean concentration of 6β-naltrexol: 1.48 ng/mL
Naltrexone 2 mg IN, hour 4
  Mean concentration of 6β-naltrexol: 1.46 ng/mL
Naltrexone 2 mg IN, hour 6
  Mean concentration of 6β-naltrexol: 1.3 ng/mL
Naltrexone 2 mg IN, hour 8
  Mean concentration of 6β-naltrexol: 1.08 ng/mL
Naltrexone 2 mg IN, hour 12
  Mean concentration of 6β-naltrexol: 0.81 ng/mL
Naltrexone 2 mg IN, hour 16
  Mean concentration of 6β-naltrexol: 0.595 ng/mL
Naltrexone 2 mg IN, hour 24
  Mean concentration of 6β-naltrexol: 0.365 ng/mL
Naltrexone 2 mg IN, hour 30
  Mean concentration of 6β-naltrexol: 0.255 ng/mL
Naltrexone 2 mg IN, hour 36
  Mean concentration of 6β-naltrexol: 0.18 ng/mL
Naltrexone 2 mg IN, hour 48
  Mean concentration of 6β-naltrexol: 0.106 ng/mL
Naltrexone 4 mg IN + […] Intravail, hour 0
  Mean concentration of 6β-naltrexol: 0.0682 ng/mL
Naltrexone 4 mg IN + […] Intravail, hour 0.042
  Mean concentration of 6β-naltrexol: 0.082 ng/mL
Naltrexone 4 mg IN + […] Intravail, hour 0.083
  Mean concentration of 6β-naltrexol: 0.238 ng/mL
Naltrexone 4 mg IN + […] Intravail, hour 0.17
  Mean concentration of 6β-naltrexol: 0.994 ng/mL
Naltrexone 4 mg IN + […] Intravail, hour 0.25
  Mean concentration of 6β-naltrexol: 1.86 ng/mL
Naltrexone 4 mg IN + […] Intravail, hour 0.33
  Mean concentration of 6β-naltrexol: 2.55 ng/mL
Naltrexone 4 mg IN + […] Intravail, hour 0.5
  Mean concentration of 6β-naltrexol: 2.84 ng/mL
Naltrexone 4 mg IN + […] Intravail, hour 0.75
  Mean concentration of 6β-naltrexol: 2.93 ng/mL
Naltrexone 4 mg IN + […] Intravail, hour 1
  Mean concentration of 6β-naltrexol: 2.73 ng/mL
Naltrexone 4 mg IN + […] Intravail, hour 2
  Mean concentration of 6β-naltrexol: 2.9 ng/mL
Naltrexone 4 mg IN + […] Intravail, hour 3
  Mean concentration of 6β-naltrexol: 2.61 ng/mL
Naltrexone 4 mg IN + […] Intravail, hour 4
  Mean concentration of 6β-naltrexol: 2.45 ng/mL
Naltrexone 4 mg IN + […] Intravail, hour 6
  Mean concentration of 6β-naltrexol: 2.03 ng/mL
Naltrexone 4 mg IN + […] Intravail, hour 8
  Mean concentration of 6β-naltrexol: 1.67 ng/mL
Naltrexone 4 mg IN + […] Intravail, hour 12
  Mean concentration of 6β-naltrexol: 1.25 ng/mL
Naltrexone 4 mg IN + […] Intravail, hour 16
  Mean concentration of 6β-naltrexol: 0.923 ng/mL
Naltrexone 4 mg IN + […] Intravail, hour 24
  Mean concentration of 6β-naltrexol: 0.618 ng/mL
Naltrexone 4 mg IN + […] Intravail, hour 30
  Mean concentration of 6β-naltrexol: 0.457 ng/mL
Naltrexone 4 mg IN + […] Intravail, hour 36
  Mean concentration of 6β-naltrexol: 0.312 ng/mL
Naltrexone 4 mg IN + […] Intravail, hour 48
  Mean concentration of 6β-naltrexol: 0.175 ng/mL
[2]
  AUC0-inf of 6β-naltrexol, mean (CV %): 46.3 (18.3) h · ng/mL
  AUC0-inf/Dose of 6β-naltrexol, mean (CV %): 12.8 (18.3) h · ng/mL/mg
  AUC0-t of 6β-naltrexol, mean (CV %): 43.0 (17.4) h · ng/mL
  AUC0-t/Dose of 6β-naltrexol, mean (CV %): 11.9 (17.4) h · ng/mL/mg
  AUCextrap of 6β-naltrexol, mean (CV %): 7.02 (37.3) %
  Cmax of 6β-naltrexol, mean (CV %): 3.29 (23.7) ng/mL
  Cmax/Dose of 6β-naltrexol, mean (CV %): 0.908 (23.7) ng/mL/mg
  Tmax of 6β-naltrexol, median (minimum, maximum): 0.75 h
  t1/2 of 6β-naltrexol, mean (CV %): 12.8 (14.6) h
  λz of 6β-naltrexol, mean (CV %): 0.0553 (15.1) 1/h
Naltrexone 4 mg IN, N = 13
  AUC0-inf of 6β-naltrexol, mean (CV %): 44.0 ng·h/mL
  AUC0-inf/Dose of 6β-naltrexol, mean (CV %): 12.2 (23.1) h · ng/mL/mg
  AUC0-t of 6β-naltrexol, mean (CV %): 40.3 (23.3) h · ng/mL
  AUC0-t/Dose of 6β-naltrexol, mean (CV %): 11.1 (23.3) h · ng/mL/mg
  AUCextrap of 6β-naltrexol, mean (CV %): 8.57 (46.1) %
  Cmax of 6β-naltrexol, mean (CV %): 3.01 (33.2) ng/mL
  Cmax/Dose of 6β-naltrexol, mean (CV %): 0.833 ng/mL/mg
  Tmax of 6β-naltrexol, median (minimum, maximum): 2.00 h
  t1/2 of 6β-naltrexol, mean (CV %): 13.7 (22.7) h
  λz of 6β-naltrexol, mean (CV %): 0.0530 h⁻¹
Naltrexone 4 mg IN, N = 13, listed as 6β-Naltrexol
  Cmax/Dose of 6β-naltrexol, mean (CV %): 0.833 (33.2) ng/mL/mg
Naltrexone 4 mg IN, hour 0
  Mean concentration of 6β-naltrexol: 0 ng/mL
Naltrexone 4 mg IN, hour 0.042
  Mean concentration of 6β-naltrexol: 0 ng/mL
Naltrexone 4 mg IN, hour 0.083
  Mean concentration of 6β-naltrexol: 0.0321 ng/mL
Naltrexone 4 mg IN, hour 0.17
  Mean concentration of 6β-naltrexol: 0.196 ng/mL
Naltrexone 4 mg IN, hour 0.25
  Mean concentration of 6β-naltrexol: 0.45 ng/mL
Naltrexone 4 mg IN, hour 0.33
  Mean concentration of 6β-naltrexol: 0.693 ng/mL
Naltrexone 4 mg IN, hour 0.5
  Mean concentration of 6β-naltrexol: 1.11 ng/mL
Naltrexone 4 mg IN, hour 0.75
  Mean concentration of 6β-naltrexol: 1.82 ng/mL
Naltrexone 4 mg IN, hour 1
  Mean concentration of 6β-naltrexol: 1.83 ng/mL
Naltrexone 4 mg IN, hour 2
  Mean concentration of 6β-naltrexol: 2.68 ng/mL
Naltrexone 4 mg IN, hour 3
  Mean concentration of 6β-naltrexol: 2.61 ng/mL
Naltrexone 4 mg IN, hour 4
  Mean concentration of 6β-naltrexol: 2.37 ng/mL
Naltrexone 4 mg IN, hour 6
  Mean concentration of 6β-naltrexol: 1.97 ng/mL
Naltrexone 4 mg IN, hour 8
  Mean concentration of 6β-naltrexol: 1.62 ng/mL
Naltrexone 4 mg IN, hour 12
  Mean concentration of 6β-naltrexol: 1.26 ng/mL
Naltrexone 4 mg IN, hour 16
  Mean concentration of 6β-naltrexol: 0.919 ng/mL
Naltrexone 4 mg IN, hour 24
  Mean concentration of 6β-naltrexol: 0.602 ng/mL
Naltrexone 4 mg IN, hour 30
  Mean concentration of 6β-naltrexol: 0.418 ng/mL
Naltrexone 4 mg IN, hour 36
  Mean concentration of 6β-naltrexol: 0.292 ng/mL
Naltrexone 4 mg IN, hour 48
  Mean concentration of 6β-naltrexol: 0.184 ng/mL
Naltrexone 50 mg Oral, N = 10
  AUC0-inf of 6β-naltrexol, mean (CV %): 675 ng·h/mL
  AUC0-inf/Dose of 6β-naltrexol, mean (CV %): 14.9 (19.9) h · ng/mL/mg
  AUC0-t of 6β-naltrexol, mean (CV %): 614 (19.5) h · ng/mL
  AUC0-t/Dose of 6β-naltrexol, mean (CV %): 13.6 (19.5) h · ng/mL/mg
  AUCextrap of 6β-naltrexol, mean (CV %): 8.79 (57.3) %
  Cmax of 6β-naltrexol, mean (CV %): 90.7 ng/mL
  Cmax/Dose of 6β-naltrexol, mean (CV %): 2.00 ng/mL/mg
  Tmax of 6β-naltrexol, median (minimum, maximum): 0.63 h
  t1/2 of 6β-naltrexol, mean (CV %): 13.9 (15.9) h
  λz of 6β-naltrexol, mean (CV %): 0.0510 (15.8) 1/h
Naltrexone 50 mg Oral, N = 10, listed as 6β-Naltrexol
  Cmax/Dose of 6β-naltrexol, mean (CV %): 2.00 (30.3) ng/mL/mg
Naltrexone 50 mg Oral, hour 0
  Mean concentration of 6β-naltrexol: 0.0454 ng/mL
Naltrexone 50 mg Oral, hour 0.042
  Mean concentration of 6β-naltrexol: 0.0448 ng/mL
Naltrexone 50 mg Oral, hour 0.083
  Mean concentration of 6β-naltrexol: 1.4 ng/mL
Naltrexone 50 mg Oral, hour 0.17
  Mean concentration of 6β-naltrexol: 14.2 ng/mL
Naltrexone 50 mg Oral, hour 0.25
  Mean concentration of 6β-naltrexol: 31.6 ng/mL
Naltrexone 50 mg Oral, hour 0.33
  Mean concentration of 6β-naltrexol: 45.5 ng/mL
Naltrexone 50 mg Oral, hour 0.5
  Mean concentration of 6β-naltrexol: 68.7 ng/mL
Naltrexone 50 mg Oral, hour 0.75
  Mean concentration of 6β-naltrexol: 60.8 ng/mL
Naltrexone 50 mg Oral, hour 1
  Mean concentration of 6β-naltrexol: 58.6 ng/mL
Naltrexone 50 mg Oral, hour 2
  Mean concentration of 6β-naltrexol: 54 ng/mL
Naltrexone 50 mg Oral, hour 3
  Mean concentration of 6β-naltrexol: 45.8 ng/mL
Naltrexone 50 mg Oral, hour 4
  Mean concentration of 6β-naltrexol: 38 ng/mL
Naltrexone 50 mg Oral, hour 6
  Mean concentration of 6β-naltrexol: 28.5 ng/mL
Naltrexone 50 mg Oral, hour 8
  Mean concentration of 6β-naltrexol: 22.2 ng/mL
Naltrexone 50 mg Oral, hour 12
  Mean concentration of 6β-naltrexol: 15.4 ng/mL
Naltrexone 50 mg Oral, hour 16
  Mean concentration of 6β-naltrexol: 11.4 ng/mL
Naltrexone 50 mg Oral, hour 24
  Mean concentration of 6β-naltrexol: 8.14 ng/mL
Naltrexone 50 mg Oral, hour 30
  Mean concentration of 6β-naltrexol: 5.93 ng/mL
Naltrexone 50 mg Oral, hour 36
  Mean concentration of 6β-naltrexol: 4.35 ng/mL
Naltrexone 50 mg Oral, hour 48
  Mean concentration of 6β-naltrexol: 2.43 ng/mL
Oral vs IN and IM
  Dose-adjusted Cmax of 6β-naltrexol after oral administration, higher than after IN and IM doses: approximately 2 fold
